Measured values reported in EP4755878A1, “PHOTOCHROMIC COMPOUND, PHENOL DERIVATIVE, CURABLE COMPOSITION, OPTICAL ARTICLE, LENS, AND EYEGLASS” (TOKUYAMA CORPORATION, priority 2023, dated 2025).

Experiment: Photochromic properties of photochromic laminate (plastic lens) made by coating method
Format: physicochemical
Details: for Color developing density at 23°C: absorbance difference after 240 seconds irradiation at 23°C; for Color developing density at 35°C: absorbance difference after 240 seconds irradiation at 35°C; for Maximum absorption wavelength: after color development, second absorption wavelength (lower line of pair)
Text: First, the photochromic compound obtained in Example 1 above, a photoinitiator, and polymerizable compounds were mixed to obtain a curable composition.
As the polymerizable compounds, a blend of the following radically-polymerizable monomers in combination was used.
• Polyethylene glycol dimethacrylate (average molecular weight: 736): 42 parts by mass • Polyethylene glycol dimethacrylate (average molecular weight: 536): 12 parts by mass • Trimethylolpropane trimethacrylate: 38 parts by mass • γ-Methacryloyloxypropyltrimethoxysilane: 2 parts by mass • Glycidyl methacrylate: 1 part by mass.
Note that in the curable composition, the photochromic compound obtained in Example 1 above was added to be 0.25 mmol taking the total amount of the radically-polymerizable monomers as 100 g. The following were used as additives.
(stabilizer, Irganox 245): 1 part by mass Bis(1,2,2,6,6-pentamethyl-4-piperidyl) sebacate: 3 parts by mass Leveling agent from DuPont Toray Specialty Materials K.K. (L7001): 0.1 parts by mass.
Note that the above-mentioned additives are described with blending ratios taking a total of the radically-polymerizable monomers as 100 parts by mass.
Using this curable composition, a photochromic laminate was obtained by a lamination process described below with the polymerization described below being carried out.
First, a thiourethane plastic lens with a center thickness of 2 mm and a refractive index of 1.60 was prepared as an optical substrate. Note that the thiourethane plastic lens had been alkaline-etched beforehand in a 10% aqueous sodium hydroxide solution at 50°C for 5 minutes, and then thoroughly washed with distilled water.
A spin coater (1H-DX2, manufactured by MIKASA CO., LTD) was used to coat a surface of the above-mentioned plastic lens with a moisture-curable primer (product name: TR-SC-P, manufactured by Tokuyama Corporation) at a rotation speed of 70 rpm for 15 seconds, followed by at 1000 rpm for 10 seconds. Then, about 2 g of the photochromic curable composition obtained as above was spin-coated at a rotation speed of 60 rpm for 40 seconds, followed by at 600 rpm for 10 to 20 seconds so as to achieve a photochromic coating layer with a film thickness of 40 µm.
The lens having the surface coated with the photochromic curable composition (photochromic coating layer) was irradiated with light for 90 seconds in a nitrogen gas atmosphere using a metal halide lamp with an output of 200 mW/cm^2 to cure the coating film. The coating was then further heated at 110°C for 1 hour to produce a photochromic laminate with a photochromic layer.
Photochromic laminates were produced using the photochromic compounds obtained in Examples 2 to 19 in the same manner as in Example 20.
Photochromic laminates were obtained in the same manner as in Example 20 using photochromic compounds represented by the following formulas (A) to (F). [drawing 143] [drawing 144] [drawing 145] [drawing 146] [drawing 147] [drawing 148] [drawing 149] [drawing 150]
The resulting photochromic laminates were evaluated by the methods described below.
Table 3 summarizes the results of Examples 20, 32, and 34, and Comparative Examples 1 to 6, and Table 4 summarizes the results of Examples 21 to 31, 33, and 35 to 38. The relationship between the fading half-life at 23°C and the color development ratio at the higher temperature of the photochromic laminates according to Examples and Comparative Examples are shown in a graph in FIG. 1.
Photochromic laminates were formed using the photochromic compound obtained in Examples 61 to 71 in the same manner as in Example 20.

Row | Color developing density at 23°C (first absorption wavelength) | Color developing density at 23°C (second absorption wavelength) | Color developing density at 35°C (first absorption wavelength) | Color developing density at 35°C (second absorption wavelength) | Maximum absorption wavelength [nm] | SMILES
1 | 0.72 - | 1.18 - | 0.53 - | 0.88 - | 596 | CCCOc1ccc(C2(c3ccc(OCCC)cc3)C=Cc3c4c(c5ccc(-c6ccc(OC)cc6OC)cc5c3O2)-c2ccc(N(C)c3ccc(F)cc3)cc2C4(CC)CC)cc1 [Formula (5-4)]
2 | 0.37 - | 0.77 - | 0.22 - | 0.46 - | 598 | CCCCCCOc1ccc(C2(c3ccc(OCCCCCC)cc3)C=Cc3c4c(c5ccc(OC(F)(F)F)cc5c3O2)-c2ccc(N(C)c3ccc(C(F)(F)F)cc3)cc2C42CCC(CC)(CC)CC2)cc1 [Formula (6-3)]
3 | 1.24 - | 1.01 - | 0.83 - | 0.68 - | 594 | COCCN(c1ccccc1)c1ccc2c(c1)C(CCOC)(CCOC)c1c3c(c4cc(C)c(N5CCOCC5)cc4c1-2)OC(c1ccc(OC)cc1)(c1ccc(OC)cc1)C=C3 [Formula (10-3)]
4 | 0.51 - | 0.51 - | 0.31 - | 0.30 - | 620 | COc1ccc(C2(c3ccc(N4CCOCC4)cc3)C=Cc3c4c(c5cc(Sc6c(C)cccc6C)c(OC)cc5c3O2)-c2ccc(N3CCOc5cc(F)ccc53)cc2C42CC(C)(C)CC(C)(C)C2)cc1 (centres unmarked) [Formula (11-4)]
5 | 0.73 - | 1.13 - | 0.51 - | 0.80 - | 628 | COc1ccc2c3c(c4c(c2c1)OC(c1ccc(F)cc1)(c1ccc(N2CCOCC2)cc1)C=C4)C(CCC(F)(F)F)(CCC(F)(F)F)c1cc(N(C)c2ccc(C)cc2)ccc1-3 (centres unmarked) [Formula (14-3)]
6 | 0.85 - | 0.96 - | 0.61 - | 0.70 - | 613 | CCCC1(CCC)c2cc(N3CCCc4ccccc43)ccc2-c2c1c1c(c3cc(OC)ccc23)OC(c2ccc(OC)cc2)(c2ccc(OCCCO)cc2)C=C1 (centres unmarked) [Formula (17-3)]
7 | 0.55 - | 0.88 - | 0.34 - | 0.57 - | 629 | CCC1(CC)c2cc(N3CCOc4ccccc43)ccc2-c2c1c1c(c3cc(OC)ccc23)OC(c2ccc(OCCOC(=O)CCCCCCCCC(=O)OCCOc3ccc(C4(c5ccc(N6CCOCC6)cc5)C=Cc5c6c(c7ccc(OC)cc7c5O4)-c4ccc(N5CCOc7ccccc75)cc4C6(CC)CC)cc3)cc2)(c2ccc(N3CCOCC3)cc2)C=C1 (centres unmarked) [Formula (19-3)]
8 | 1.37 - | 0.88 - | 1.03 - | 0.64 - | 619 | CCCOc1ccc(C2(c3ccc(OCCC)cc3)C=Cc3c4c(c5cc(N(C)c6ccccc6)c(OC)cc5c3O2)-c2ccc(N(C)c3ccccc3)cc2C4(CCC)CCC)cc1 [Formula (61-4)]
9 | 1.20 - | 0.90 - | 0.88 - | 0.66 - | 625 | COCCOCCOCCC1(CCOCCOCCOC)c2cc(N(c3ccccc3)c3ccccc3)ccc2-c2c1c1c(c3cc(OC)c(-c4c(OC)cc(OC)cc4OC)cc23)OC(c2ccc(OC)cc2)(c2ccc(OC)cc2)C=C1 [Formula (62-5)]
10 | 0.71 - | 0.80 - | 0.50 - | 0.57 - | 626 | CCCCOc1ccc(C2(c3ccc(OC)cc3)C=Cc3c4c(c5cc(-c6ccc(C(F)(F)F)cc6)c(OC)cc5c3O2)-c2ccc(N(C)c3ccccc3)cc2C4(CCC)CCC)cc1 (centres unmarked) [Formula (63-2)]
11 | 1.94 - | 0.92 - | 1.38 - | 0.67 - | 611 | CCCCCCOc1ccc(C2(c3ccc(OCCCCCC)cc3)C=Cc3c4c(c5cc(N6CCC(C(F)(F)F)CC6)c(OC)cc5c3O2)-c2ccc(N(c3ccccc3)c3ccccc3)cc2C42CCC3(CCCCC3)CC2)cc1 [Formula (64-3)]
12 | 0.85 - | 0.77 - | 0.57 - | 0.53 - | 623 | CCCCOCCC1(CCOCCCC)c2cc(N(c3ccccc3)c3ccccc3)ccc2-c2c1c1c(c3cc(OC)c(N(C)c4ccc(C(F)(F)F)cc4)cc23)OC(c2ccc(OC)cc2)(c2ccc(OCCC)cc2)C=C1 (centres unmarked) [Formula (65-2)]
13 | 1.37 - | 1.03 - | 1.09 - | 0.82 - | 602 | CCCCCC1(CCCCC)c2cc(N3CCOc4ccccc43)ccc2-c2c1c1c(c3cc(OC)c(-c4ccc(N5CCOc6ccccc65)cc4)cc23)OC(c2ccc(OC)cc2)(c2ccc(OC)cc2)C=C1 [Formula (66-5)]
14 | 0.84 - | 1.00 - | 0.60 - | 0.72 - | 639 | CCC1(CC)c2cc(N(C)c3ccccc3)ccc2-c2c1c1c(c3cc(OC)c(-c4ccc(OC)cc4OC)cc23)OC(c2ccc(OC)cc2)(c2ccc(N3CCOCC3)cc2)C=C1 (centres unmarked) [Formula (67-2)]
15 | 0.79 - | 0.73 - | 0.51 - | 0.47 - | 636 | CCCCOCCC1(CCOCCCC)c2cc(N(c3ccccc3)c3ccc(C)cc3)ccc2-c2c1c1c(c3cc(OC)c(OC)cc23)OC(c2ccc(OC)cc2)(c2ccc(N3CCOCC3)cc2)C=C1 (centres unmarked) [Formula (68-2)]
16 | 1.76 - | 1.28 - | 1.32 - | 0.96 - | 640 | COCCCC1(CCCOC)c2cc(N(c3ccccc3)c3ccccc3)ccc2-c2c1c1c(c3cc(OC)c(N4CCOCC4)cc23)OC(c2ccc(C)cc2)(c2ccc(N(C)c3ccccc3)cc2)C=C1 (centres unmarked) [Formula (69-2)]
17 | 1.44 - | 1.24 - | 1.16 - | 1.01 - | 621 | CCCCCCC1(CCCCCC)c2cc(N(c3ccccc3)c3ccccc3)ccc2-c2c1c1c(c3cc(OC)c(-c4ccccc4N4CCOCC4)cc23)OC(c2ccc(OC)cc2)(c2ccc(OC)c(F)c2)C=C1 (centres unmarked) [Formula (70-4)]
18 | 1.43 - | 1.36 - | 1.17 - | 1.10 - | 643 | CCCC1(CCC)c2cc(N(C)c3ccccc3)ccc2-c2c1c1c(c3cc(OC)c(-c4ccc(N5CC(C)OC(C)C5)cc4)cc23)OC(c2ccc(N3CCOCC3)cc2)(c2ccc(OC)c(OC)c2)C=C1 (centres unmarked) [Formula (71-5)]
19 | 0.71 - | 0.96 - | 0.46 - | 0.63 - | 579 | COc1ccc(C2(c3ccc(OC)cc3)C=Cc3c4c(c5ccc(OC)cc5c3O2)-c2ccc(Oc3ccccc3)cc2C4(C)C)cc1 [Formula(E), reference compound]
